Laboratory results reported in US20260184663A1, “INDENE COMPOUNDS, PHARMACEUTICAL COMPOSITIONS THEREOF, AND THEIR THERAPEUTIC APPLICATIONS” (NucMito Pharmaceuticals co. Ltd., priority 2022, published 2026).

Experiments:
Format in all cases: cell-based
[1] = test system: MDA-MB-231 (breast cancer); assay: Antiproliferative activity (CCK-8 cell viability), MDA-MB-231; settings: Homo sapiens, 72 h, read-out: Antiproliferative activity in cancerous cells, MDA-MB-231 (inhibition of cell growth); for inhibition at 3.3 µM: Compound concentration: 3.3 μM; for inhibition at 10 µM: Compound concentration: 10 μM; for inhibition at 30 µM: Compound concentration: 30 μM
Outline: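 In this CCK-8 viability assay, MDA-MB-231 cells maintained in Dulbecco's modified Eagle's medium containing 10% fetal bovine serum were placed in 96-well plates (2,000-5,000 cells/well) and treated with compound for 72 h at 37° C. A 4 h incubation with 10 μL CCK-8 followed, plates were read at 450 nm, and viability was expressed against DMSO vehicle wells across replicates.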

[2] = test system: HepG2 (liver cancer); assay: Antiproliferative activity (CCK-8 cell viability), HepG2; settings: Homo sapiens, 72 h, read-out: Antiproliferative activity in cancerous cells, HepG2 (inhibition of cell growth); for inhibition at 3.3 µM: Compound concentration: 3.3 μM; for inhibition at 10 µM: Compound concentration: 10 μM; for inhibition at 30 µM: Compound concentration: 30 μM
Outline: (§1)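 Cells were seeded at 2,000-5,000/well (HeLa in MEM, HepG2 and SW480 in DMEM, A549 in F-12K, all with 10% FBS) and treated with compound at 3.3, 10 or 30 μM for 72 h at 37° C. CCK-8 was added for 4 h, absorbance was read at 450 nm, and viability was expressed relative to DMSO-treated wells.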

[3] = test system: SW480 (colon cancer); assay: Antiproliferative activity (CCK-8 cell viability), SW480; settings: Homo sapiens, 72 h, read-out: Antiproliferative activity in cancerous cells, SW480 (inhibition of cell growth); for inhibition at 3.3 µM: Compound concentration: 3.3 μM; for inhibition at 10 µM: Compound concentration: 10 μM; for inhibition at 30 µM: Compound concentration: 30 μM
Outline: as §1

[4] = test system: B16F10 (malignant melanoma); assay: Antiproliferative activity (CCK-8 cell viability), B16F10; settings: Mus musculus, 72 h, read-out: Antiproliferative activity in cancerous cells, B16F10 (inhibition of cell growth); for inhibition at 3.3 µM: B16-F10, Compound concentration: 3.3 μM; for inhibition at 10 µM: B16-F10, Compound concentration: 10 μM; for inhibition at 30 µM: B16-F10, Compound concentration: 30 μM
Outline: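 Attached B16F10 cells in 96-well plates were incubated with compound at 37° C for 72 h, followed by 10 μL CCK-8 reagent per well and a further 4 h incubation. A multi-well plate reader measured absorbance at 450 nm. Percent viability across replicates was calculated against DMSO vehicle-treated cells.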

[5] = test system: A431 (epidermoid carcinoma); assay: Antiproliferative activity (CCK-8 cell viability), A431; settings: Homo sapiens, 72 h, read-out: Antiproliferative activity in cancerous cells, A431 (inhibition of cell growth); for inhibition at 3.3 µM: A-431, Compound concentration: 3.3 μM; for inhibition at 10 µM: A-431, Compound concentration: 10 μM; for inhibition at 30 µM: A-431, Compound concentration: 30 μM
Outline: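 Cell viability of compound-treated A431 cells was measured with a Cell Counting Kit-8. Each well received 10 μL of CCK-8 after 72 h of compound exposure, followed by 4 h incubation at 37° C. and a 450 nm plate-reader measurement. Percent viability was calculated relative to DMSO controls across replicates.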

[6] = test system: A549 (lung adenocarcinoma); assay: Antiproliferative activity (CCK-8 cell viability), A549; settings: Homo sapiens, 72 h, read-out: Antiproliferative activity in cancerous cells, A549 (inhibition of cell growth); for inhibition at 3.3 µM: Compound concentration: 3.3 μM; for inhibition at 10 µM: Compound concentration: 10 μM; for inhibition at 30 µM: Compound concentration: 30 μM
Outline: as §1

[7] = test system: HeLa (cervical cancer); assay: Antiproliferative activity (CCK-8 cell viability), HeLa; settings: Homo sapiens, 72 h, read-out: Antiproliferative activity in cancerous cells, HELA (inhibition of cell growth); for inhibition at 3.3 µM: Compound concentration: 3.3 μM; for inhibition at 10 µM: Compound concentration: 10 μM; for inhibition at 30 µM: Compound concentration: 30 μM
Outline: as §1

Row | SMILES | inhibition at 3.3 µM [1] [%] | inhibition at 10 µM [1] [%] | inhibition at 3.3 µM [2] [%] | inhibition at 10 µM [2] [%] | inhibition at 3.3 µM [3] [%] | inhibition at 10 µM [3] [%] | inhibition at 3.3 µM [4] [%] | inhibition at 10 µM [4] [%] | inhibition at 3.3 µM [5] [%] | inhibition at 10 µM [5] [%] | inhibition at 3.3 µM [6] [%] | inhibition at 10 µM [6] [%] | inhibition at 3.3 µM [7] [%] | inhibition at 10 µM [7] [%] | also measured
1 | CC1=C(CC(=O)O)c2cc(F)ccc2/C1=C\c1ccc(Oc2ccc(Cl)cc2)cc1F [C78, (Z)-2-(1-(4-(4-Chlorophenoxy)-2-fluorobenzylidene)-5-fluoro-2-methyl-1H-inden-3-yl)acetic acid] | ≥ 50 | ≥ 50 | < 30 | ≥ 50 | < 30 | 30 to 50 | < 30 | ≥ 50 | < 30 | ≥ 50 | ≥ 50 | ≥ 50 | < 30 | ≥ 50 | –
2 | O=C(O)CC1=C(Cc2ccc(Oc3ccc(F)cc3)cc2)/C(=C/c2ccc(Cc3ccc(F)cc3)cc2)c2ccc(F)cc21 [A112, (Z)-2-(5-Fluoro-1-(4-(4-fluorobenzyl)benzylidene)-2-(4-(4-fluorophenoxy)-benzyl)-1H-inden-3-yl)acetic acid] | ≥ 50 | ≥ 50 | 30 to 50 | ≥ 50 | ≥ 50 | ≥ 50 | 30 to 50 | ≥ 50 | ≥ 50 | ≥ 50 | ≥ 50 | ≥ 50 | ≥ 50 | ≥ 50 | –
3 | CC1=C(CC(=O)O)c2c(F)cc(F)cc2/C1=C\c1ccc(C(F)(F)F)cc1 [D5, (Z)-2-(4,6-Difluoro-2-methyl-1-(4-(trifluoromethyl)benzylidene)-1H-inden-3-yl)-acetic acid] | < 30 | 30 to 50 | < 30 | < 30 | < 30 | < 30 | < 30 | ≥ 50 | ≥ 50 | ≥ 50 | 30 to 50 | ≥ 50 | < 30 | ≥ 50 | inhibition at 30 µM [1]: ≥ 50%; inhibition at 30 µM [2]: 30 to 50%; inhibition at 30 µM [3]: < 30%; inhibition at 30 µM [4]: ≥ 50%; inhibition at 30 µM [5]: ≥ 50%; inhibition at 30 µM [6]: ≥ 50%; inhibition at 30 µM [7]: ≥ 50%
4 | CC1=C(CC(=O)O)c2cc(F)ccc2/C1=C\c1ccc(CCCc2ccc(Cl)cc2)cc1 [B119, (Z)-2-(1-(4-(3-(4-Chlorophenyl)propyl)benzylidene)-5-fluoro-2-methyl-1H-inden-3-yl)acetic acid] | < 30 | < 30 | ≥ 50 | ≥ 50 | ≥ 50 | ≥ 50 | < 30 | ≥ 50 | ≥ 50 | ≥ 50 | 30 to 50 | ≥ 50 | < 30 | ≥ 50 | –
5 | CC1=C(CC(=O)O)c2cc(F)ccc2/C1=C/c1cccc(COc2ccc(F)c(F)c2)c1 [E9, 2-[(1E)-1-({3-[(3,4-Difluorophenoxy)methyl]phenyl}methylidene)-5-fluoro-2-methyl-1H-inden-3-yl]acetic acid] | ≥ 50 | ≥ 50 | 30 to 50 | ≥ 50 | ≥ 50 | ≥ 50 | 30 to 50 | ≥ 50 | < 30 | ≥ 50 | 30 to 50 | 30 to 50 | < 30 | 30 to 50 | inhibition at 30 µM [1]: ≥ 50%; inhibition at 30 µM [2]: ≥ 50%; inhibition at 30 µM [3]: ≥ 50%; inhibition at 30 µM [4]: ≥ 50%; inhibition at 30 µM [5]: ≥ 50%; inhibition at 30 µM [6]: ≥ 50%; inhibition at 30 µM [7]: ≥ 50%
6 | CC1=C(CC(O)CO)c2ccccc2/C1=C\c1ccc(Oc2ccc(F)cc2)cc1 (centres unmarked) [A203, (Z)-3-(1-(4-(4-Fluorophenoxy)benzylidene)-2-methyl-1H-inden-3-yl)propane-1,2-diol] | < 30 | ≥ 50 | < 30 | < 30 | < 30 | 30 to 50 | < 30 | ≥ 50 | 30 to 50 | ≥ 50 | < 30 | ≥ 50 | < 30 | ≥ 50 | –
7 | CC1=C(CC(=O)O)c2cc(Cl)ccc2/C1=C\c1cccc(Oc2ccc(O)cc2)c1 [C104, (Z)-2-(5-Chloro-1-(3-(4-hydroxyphenoxy)benzylidene)-2-methyl-1H-inden-3-yl)acetic acid] | < 30 | ≥ 50 | < 30 | ≥ 50 | < 30 | ≥ 50 | ≥ 50 | ≥ 50 | ≥ 50 | ≥ 50 | < 30 | ≥ 50 | ≥ 50 | ≥ 50 | –
8 | CC1=C(CC(=O)O)c2cc(F)ccc2/C1=C\c1ccc(COCc2ccc(C(F)(F)F)cc2)cc1 [B111, (Z)-2-(5-Fluoro-2-methyl-1-(4-(((4-(trifluoromethyl)benzyl)oxy)methyl)-benzylidene)-1H-inden-3-yl)acetic acid] | 30 to 50 | ≥ 50 | < 30 | ≥ 50 | < 30 | ≥ 50 | 30 to 50 | ≥ 50 | < 30 | ≥ 50 | 30 to 50 | ≥ 50 | ≥ 50 | ≥ 50 | –
9 | CC1=C(CC(=O)O)c2cc(F)ccc2/C1=C\c1cccc(Oc2ccc(Br)cc2)c1 [C97, (Z)-2-(1-(3-(4-Bromophenoxy)benzylidene)-5-fluoro-2-methyl-1H-inden-3-yl)acetic acid] | < 30 | < 30 | < 30 | ≥ 50 | < 30 | < 30 | 30 to 50 | ≥ 50 | < 30 | < 30 | < 30 | 30 to 50 | < 30 | ≥ 50 | –
